Peptide text beside a SMILES is read from it.
Assays:
CRF2R = target: T1, CRF2R (Homo sapiens, UniProt Q13324); assay: CRF2R agonist activity (EC50, Emax), called comparative CRF binding; type: cell-based; settings: read-out: CRF2R EC50
T1 sequence (Q13324 1-411): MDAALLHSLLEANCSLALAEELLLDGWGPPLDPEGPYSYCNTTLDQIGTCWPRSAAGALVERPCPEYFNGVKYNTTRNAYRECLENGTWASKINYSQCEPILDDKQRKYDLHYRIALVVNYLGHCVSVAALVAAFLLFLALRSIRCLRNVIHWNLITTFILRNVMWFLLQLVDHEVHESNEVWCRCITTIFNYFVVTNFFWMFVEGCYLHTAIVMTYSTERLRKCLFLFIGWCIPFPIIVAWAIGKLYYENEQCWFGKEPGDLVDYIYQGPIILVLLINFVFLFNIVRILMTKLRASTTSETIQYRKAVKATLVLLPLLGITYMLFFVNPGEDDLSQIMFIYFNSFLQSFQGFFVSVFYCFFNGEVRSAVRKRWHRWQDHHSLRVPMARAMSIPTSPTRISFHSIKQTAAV
Procedure, shortened: (§1)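 Single-subtype CRFR cells, peptide vs vehicle, cAMP via CRE-reporter or lysate assay; background from other CRFR type subtracted if present.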

CRF1R = target: T2, CRF1R (Homo sapiens, UniProt P34998); assay: CRF1R agonist activity (EC50, Emax), called comparative CRF binding; type: cell-based; settings: read-out: CRF1R EC50
T2 sequence (P34998 24-415): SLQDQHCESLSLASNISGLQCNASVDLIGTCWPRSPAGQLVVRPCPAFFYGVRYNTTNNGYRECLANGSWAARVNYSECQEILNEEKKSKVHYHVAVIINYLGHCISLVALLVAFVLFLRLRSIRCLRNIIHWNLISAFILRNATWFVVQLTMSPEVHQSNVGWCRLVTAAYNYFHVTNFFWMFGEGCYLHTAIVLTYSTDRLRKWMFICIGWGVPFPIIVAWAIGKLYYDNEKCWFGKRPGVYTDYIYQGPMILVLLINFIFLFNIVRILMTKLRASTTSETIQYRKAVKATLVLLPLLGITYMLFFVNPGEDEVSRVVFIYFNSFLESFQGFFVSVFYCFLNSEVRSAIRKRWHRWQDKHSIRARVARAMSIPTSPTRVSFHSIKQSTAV
Procedure, shortened: as §1

Compound | EC50 (CRF2R) [nM] | EC50 (CRF1R) [nM]
CC[C@H](C)[C@H](NC(=O)[C@H](CCCNC(=N)N)NC(=O)[C@H](C)NC(=O)[C@H](CC(N)=O)NC(=O)[C@H](CCC(N)=O)NC(=O)[C@H](CCC(=O)O)NC(=O)[C@H](C)NC(=O)[C@H](CCCNC(=N)N)NC(=O)[C@H](CCC(=O)O)NC(=O)[C@H](CCCNC(=N)N)NC(=O)[C@H](CCC(N)=O)NC(=O)[C@H](CO)NC(=O)[C@H](CCC(N)=O)NC(=O)[C@@H](NC(=O)[C@H](CCCCN)NC(=O)[C@H](CCC(=O)O)NC(=O)[C@H](CC(C)C)NC(=O)[C@H](CCC(=O)O)NC(=O)[C@H](CC(C)C)NC(=O)[C@H](CC(C)C)NC(=O)[C@@H](NC(=O)[C@H](CCCNC(=N)N)NC(=O)[C@H](CC(C)C)NC(=O)[C@H](CC(C)C)NC(=O)[C@H](Cc1ccccc1)NC(=O)[C@H](CC(C)C)NC(=O)[C@@H]1CCCN1C(=O)[C@H](CC(C)C)NC(=O)[C@H](CC(=O)O)NC(=O)[C@@H](NC(=O)[C@H](CO)NC(=O)[C@H](CC(C)C)NC(=O)[C@H](CO)NC(=O)[C@@H]1CCCN1)[C@@H](C)CC)[C@@H](C)O)[C@@H](C)O)C(=O)N[C@@H](Cc1ccccc1)C(=O)N[C@@H](C)C(=O)N[C@@H](CCCNC(=N)N)C(=O)N[C@H](C(N)=O)C(C)C [compound 331] (H-PSLSIDLPLFLLRTLLELEKTQSQRERAEQNARIFARV-NH2; N-terminus assumed) | 9.85 | ≥ 1000
CC[C@H](C)[C@H](N)C(=O)N[C@H](C(=O)N[C@@H](CC(C)C)C(=O)N[C@@H](CO)C(=O)N[C@@H](CC(C)C)C(=O)N[C@@H](CC(=O)O)C(=O)N[C@H](C(=O)N1CCC[C@H]1C(=O)N[C@H](C(=O)NCC(=O)N[C@@H](CC(C)C)C(=O)N[C@@H](CC(C)C)C(=O)N[C@@H](CCC(N)=O)C(=O)N[C@H](C(=O)N[C@@H](CC(C)C)C(=O)N[C@@H](CC(C)C)C(=O)N[C@@H](CCC(=O)O)C(=O)N[C@@H](CCC(N)=O)C(=O)N[C@@H](CCC(=O)O)C(=O)N[C@@H](CCCNC(=N)N)C(=O)N[C@@H](CCC(N)=O)C(=O)N[C@@H](CCCNC(=N)N)C(=O)N[C@@H](C)C(=O)N[C@@H](C)C(=O)N[C@@H](CCCNC(=N)N)C(=O)N[C@@H](CCC(=O)O)C(=O)N[C@@H](CCC(N)=O)C(=O)N[C@@H](C)C(=O)N[C@H](C(=O)N[C@H](C(=O)N[C@@H](CC(N)=O)C(=O)N[C@@H](C)C(=O)N[C@@H](CCCNC(=N)N)C(=O)N[C@H](C(=O)N[C@@H](CC(C)C)C(=O)N[C@@H](C)C(=O)N[C@@H](CCCNC(=N)N)C(=O)N[C@H](C(N)=O)C(C)C)[C@@H](C)CC)[C@@H](C)O)[C@@H](C)O)[C@@H](C)CC)[C@@H](C)CC)C(C)C)C(C)C [compound 111] (H-IVLSLDVPIGLLQILLEQERQRAAREQATTNARILARV-NH2; N-terminus assumed) | 11 | > 100
CC[C@H](C)[C@H](N)C(=O)N[C@H](C(=O)N[C@@H](CC(C)C)C(=O)N[C@@H](CO)C(=O)N[C@@H](CC(C)C)C(=O)N[C@@H](CC(=O)O)C(=O)N[C@H](C(=O)N1CCC[C@H]1C(=O)N[C@H](C(=O)NCC(=O)N[C@@H](CC(C)C)C(=O)N[C@@H](CC(C)C)C(=O)N[C@@H](CCC(N)=O)C(=O)N[C@H](C(=O)N[C@@H](CC(C)C)C(=O)N[C@@H](CC(C)C)C(=O)N[C@@H](CCC(=O)O)C(=O)N[C@@H](CCC(N)=O)C(=O)N[C@@H](CCCNC(=N)N)C(=O)N[C@@H](C)C(=O)N[C@@H](CCCNC(=N)N)C(=O)N[C@@H](C)C(=O)N[C@@H](C)C(=O)N[C@@H](CCCNC(=N)N)C(=O)N[C@@H](CCC(=O)O)C(=O)N[C@@H](CCC(N)=O)C(=O)N[C@@H](C)C(=O)N[C@H](C(=O)N[C@H](C(=O)N[C@@H](CC(N)=O)C(=O)N[C@@H](C)C(=O)N[C@@H](CCCNC(=N)N)C(=O)N[C@H](C(=O)N[C@@H](CC(C)C)C(=O)N[C@@H](C)C(=O)N[C@@H](CCCNC(=N)N)C(=O)N[C@H](C(N)=O)C(C)C)[C@@H](C)CC)[C@@H](C)O)[C@@H](C)O)[C@@H](C)CC)[C@@H](C)CC)C(C)C)C(C)C [compound 137] (H-IVLSLDVPIGLLQILLEQRARAAREQATTNARILARV-NH2; N-terminus assumed) | 36.9 | > 100
CC[C@H](C)[C@H](N)C(=O)N[C@H](C(=O)N[C@@H](CC(C)C)C(=O)N[C@@H](CO)C(=O)N[C@@H](CC(C)C)C(=O)N[C@@H](CC(=O)O)C(=O)N[C@H](C(=O)N1CCC[C@H]1C(=O)N[C@H](C(=O)NCC(=O)N[C@@H](CC(C)C)C(=O)N[C@@H](CC(C)C)C(=O)N[C@@H](CCC(N)=O)C(=O)N[C@H](C(=O)N[C@@H](CC(C)C)C(=O)N[C@@H](CC(C)C)C(=O)N[C@@H](CCC(=O)O)C(=O)N[C@@H](CCC(N)=O)C(=O)N[C@@H](CCC(=O)O)C(=O)N[C@@H](CCCCN)C(=O)N[C@@H](CCC(N)=O)C(=O)N[C@@H](CCCNC(=N)N)C(=O)N[C@@H](C)C(=O)N[C@@H](C)C(=O)N[C@@H](CCCNC(=N)N)C(=O)N[C@@H](CCC(=O)O)C(=O)N[C@@H](CCC(N)=O)C(=O)N[C@@H](C)C(=O)N[C@H](C(=O)N[C@H](C(=O)N[C@@H](CC(N)=O)C(=O)N[C@@H](C)C(=O)N[C@@H](CCCNC(=N)N)C(=O)N[C@H](C(=O)N[C@@H](CC(C)C)C(=O)N[C@@H](C)C(=O)N[C@@H](CCCNC(=N)N)C(=O)N[C@H](C(N)=O)C(C)C)[C@@H](C)CC)[C@@H](C)O)[C@@H](C)O)[C@@H](C)CC)[C@@H](C)CC)C(C)C)C(C)C [compound 115] (H-IVLSLDVPIGLLQILLEQEKQRAAREQATTNARILARV-NH2; N-terminus assumed) | 13.6 | > 100
CC[C@H](C)[C@H](N)C(=O)N[C@H](C(=O)N[C@@H](CC(C)C)C(=O)N[C@@H](CO)C(=O)N[C@@H](CC(C)C)C(=O)N[C@@H](CC(=O)O)C(=O)N[C@H](C(=O)N1CCC[C@H]1C(=O)N[C@H](C(=O)NCC(=O)N[C@@H](CC(C)C)C(=O)N[C@@H](CC(C)C)C(=O)N[C@@H](CCC(N)=O)C(=O)N[C@H](C(=O)N[C@@H](CC(C)C)C(=O)N[C@@H](CC(C)C)C(=O)N[C@@H](CCC(=O)O)C(=O)N[C@@H](CCC(N)=O)C(=O)N[C@@H](CCC(=O)O)C(=O)N[C@@H](CCCCN)C(=O)N[C@@H](C)C(=O)N[C@@H](CCCNC(=N)N)C(=O)N[C@@H](C)C(=O)N[C@@H](C)C(=O)N[C@@H](CCCNC(=N)N)C(=O)N[C@@H](CCC(=O)O)C(=O)N[C@@H](CCC(N)=O)C(=O)N[C@@H](C)C(=O)N[C@H](C(=O)N[C@H](C(=O)N[C@@H](CC(N)=O)C(=O)N[C@@H](C)C(=O)N[C@@H](CCCNC(=N)N)C(=O)N[C@H](C(=O)N[C@@H](CC(C)C)C(=O)N[C@@H](C)C(=O)N[C@@H](CCCNC(=N)N)C(=O)N[C@H](C(N)=O)C(C)C)[C@@H](C)CC)[C@@H](C)O)[C@@H](C)O)[C@@H](C)CC)[C@@H](C)CC)C(C)C)C(C)C [compound 121] (H-IVLSLDVPIGLLQILLEQEKARAAREQATTNARILARV-NH2) | 5.67 | > 100
CC[C@H](C)[C@H](N)C(=O)N[C@H](C(=O)N[C@@H](CC(C)C)C(=O)N[C@@H](CO)C(=O)N[C@@H](CC(C)C)C(=O)N[C@@H](CC(=O)O)C(=O)N[C@H](C(=O)N1CCC[C@H]1C(=O)N[C@H](C(=O)NCC(=O)N[C@@H](CC(C)C)C(=O)N[C@@H](CC(C)C)C(=O)N[C@@H](CCC(N)=O)C(=O)N[C@H](C(=O)N[C@@H](CC(C)C)C(=O)N[C@@H](CC(C)C)C(=O)N[C@@H](CCC(=O)O)C(=O)N[C@@H](CCC(N)=O)C(=O)N[C@@H](CCC(=O)O)C(=O)N[C@@H](CCCNC(=N)N)C(=O)N[C@@H](CCC(N)=O)C(=O)N[C@@H](CCC(=O)O)C(=O)N[C@@H](C)C(=O)N[C@@H](C)C(=O)N[C@@H](CCCNC(=N)N)C(=O)N[C@@H](CCC(=O)O)C(=O)N[C@@H](CCC(N)=O)C(=O)N[C@@H](C)C(=O)N[C@H](C(=O)N[C@H](C(=O)N[C@@H](CC(N)=O)C(=O)N[C@@H](C)C(=O)N[C@@H](CCCNC(=N)N)C(=O)N[C@H](C(=O)N[C@@H](CC(C)C)C(=O)N[C@@H](C)C(=O)N[C@@H](CCCNC(=N)N)C(=O)N[C@H](C(N)=O)C(C)C)[C@@H](C)CC)[C@@H](C)O)[C@@H](C)O)[C@@H](C)CC)[C@@H](C)CC)C(C)C)C(C)C [compound 118] (H-IVLSLDVPIGLLQILLEQERQEAAREQATTNARILARV-NH2; N-terminus assumed) | 14.6 | > 100

Source: patent publication US7192924B2, “Corticotropin releasing factor 2 receptor agonists” (priority 2002, dated 2007)
